Experimental data reported in patent publication US11148998B2, “Dimethyl-nonatetraenyl-trimethyl-cyclohexyl compounds and uses thereof” (The Regents of the University of Michigan, priority 2017, dated 2021).

Legend:
rhino mouse skin [1] = assay: Rhino mouse topical treatment: skin histology (horn-filled utriculi, epidermal thickness, inflammation); format: in vivo; conditions: for inflammatory response / inflammatory cell infiltrate in histological sections (in words) / Epidermal thickness / Utriculus number / skin structure in histology (dermal thickness, utriculi, necrosis, infiltration) / Inflammatory index: 21 days; for Inflammatory index: scored 0 to 4+
Excerpt: FIGS. 12A-C: Efficacy of retinoids at normalizing structure of rhino mouse skin after topical treatment for 21 days.
FIGS. 13A-C: Dose related effect of Example 2 on rhino mouse skin.
The rhinomouse model is an industry-standard pre-clinical model for evaluation of retinoids for anti-acne activity. The mice can be treated topically over a course of days with the desired compound (either formulated or in liquid solvent). During the course of treatment, the animals can be evaluated grossly for skin irritation. At the end of the treatment phase, the animals are euthanized. Skin from treated sites can be evaluated for efficacy—reduction in the number of horn-filled utriculi—and for histological evidence of inflammation.
(§1) As a control, Tretinoin-0.1% was used. […] This is a commonly-prescribed anti-acne medicine.
One day after the last treatment, animals were euthanized. The animals were injected with 7 ml 10% buffered formalin after euthanasia. 15 minutes later the treated area on the back of the mouse was removed and cut into 8 pieces. Every other piece was taken, so four pieces of skin were mounted in one cassette and fixed for histology. An extra piece of skin from a non-treated area was also evaluated.
Hematoxylin and eosin stained sections were evaluated microscopically for epidermal thickness with measurements made in the inter-follicular regions at 4 representative sites per tissue strip.
The number of horn-filled utriculi was determined by direct counting in the entire section of skin. Each of the four sections per biopsy was used for determining the number of utriculi. Section lengths were measured as a way to normalize findings. Typically, the section of skin varied from 16-20 mm.
Slides were examined microscopically and inflammation was scored on a 0 to 4+ basis. A score of zero indicated no inflammation while increasing collection of inflammatory cells was identified with increasing score. Slides were also evaluated to determine if inflammation was confined to the dermis or whether there was epidermal inflammation. Dermal inflammation was assessed to determine if inflammatory cells were scattered throughout the dermis or whether small abscesses were also present. Finally, the inflammatory lesions were evaluated to determine whether they consisted of primarily mononuclear cells, granulocytic cells or both. A similar scale has been used previously in the assessment of skin irritation.
At the end of the in-life portion of the study, mice were euthanized by CO2 overdose. Hematoxylin and eosin-stained histological sections from each mouse in the control, ATRA-treated and Compound 2-treated groups were evaluated with regard to the number of horn-filled utriculi, epidermal thickness, and inflammation. Briefly, the epidermis of control mice consisted of a thin epidermis with large numbers of horn-filled utriculi (98+10 per 20 mm of epidermal linear length). […] Both the ATRA-treated mouse (top right panel) the Compound 2 treated skin (bottom panel) show both much thickened […] and disappearance of utriculi. […] There were large numbers of inflammatory cells in the dermis. Microabscesses could be seen in places, and migration of inflammatory cells into the epidermis was also evident. The infiltrate consisted of both mononuclear cells and granulocytes. […] The three other experimental retinoids were also examined along with Compound 2. […] In FIG. 13 it can be seen that during the dosing period 0.1% of Compound 2 led to skin thickening, but incomplete resolution of the utricali, whereas at 0.3% the utricali were more fully resolved.

rhino mouse skin [2] = assay: Rhino mouse topical treatment: gross skin irritation (modified Draize scale); format: in vivo; conditions: for gross skin appearance / irritation: topical daily for 21 days, photographed Day 22, ATRA as 35 mg of 0.1% cream, Examples in DMSO
Description: FIGS. 10A-C: Lack of Dose-related skin irritation after 21 day topical treatment of rhino mice with 100 μL DMSO control (10A) and 100 μL DMSO containing Example 2 at 0.1 (10B) and 0.3% concentrations (10C).
FIG. 11. […] The cumulative irritation score is a modified version of the Draize irritation scale, and the animals were assessed daily by an assessor who was blinded to the treatment given each mouse.
Rhino mice (HRS\J hr^rhhr^rh)) were obtained from Jackson Laboratories. Animals were recent weanlings; at this stage in the life of the rhinomouse, the phenotype (i.e., skin with numerous horn-filled utriculi) is well expressed and continues to be for several weeks. Both males and females were included. Animals were divided into treatment groups. Once in the laboratory, the mice were kept in temperature- and humidity-controlled rooms. All procedures during the in-life portion of the study were carried out in facilities of the Unit for Laboratory Animal Medicine (ULAM) at the University of Michigan—which is an AAALAC-certified institution. All procedures were carried out with approval by the University of Michigan Institutional Animal Care and Use Committee (IACUC).
as §1
Animals were housed individually during the treatment phase of the study. During the treatment phase, animals were assessed daily for overall health, and for signs of skin irritation. The Draize scale was used to assess skin irritation. The Draize scale evaluates the parameters of erythema and edema. Each parameter was scored between 0 and 4+ with 0 indicating no difference from control mice and 4+ indicating maximum erythema or edema. In addition, animals were assessed for dryness/flaking/cracking (single score). The overall irritation score was a compilation of the three parameters in all mice from a treatment group. During the treatment phase, animals were weighed weekly.
FIG. 1 left provides a summation of the skin irritation response in the different treatment groups. In control mice, there was little evidence of skin irritation at any time throughout the study. […] The initial spike in irritation was followed by a dip and then secondary rise. This is consistent with what is typically seen with ATRA. […] Neither the control mouse nor the Compound 1 & 2 treated mice show visible signs of irritation in the skin. In contrast, skin from the ATRA-treated mouse is red, dry and flaky. Small cracks in the skin can be seen and there is significant edema.

[3] = topical, concentration not given

SMILES | inflammatory response / inflammatory cell infiltrate in histological sections (in words) (rhino mouse skin [1]; [3]) | number of utriculi compared to control (in words) (rhino mouse skin [1]; [3]) | gross skin appearance / irritation (rhino mouse skin [2]) | Epidermal thickness (rhino mouse skin [1]; 0.1% topical) | Utriculus number (rhino mouse skin [1]; 0.1% topical) | skin structure in histology (dermal thickness, utriculi, necrosis, infiltration) (rhino mouse skin [1]; 0.1% topical) | cumulative irritation score (modified Draize scale) (rhino mouse skin [2]; 0.1% topical daily for 21 days) | Inflammatory index (rhino mouse skin [1]; 0.1% topical) | Epidermal thickness (rhino mouse skin [1]; 0.3% topical) | Utriculus number (rhino mouse skin [1]; 0.3% topical) | Inflammatory index (rhino mouse skin [1]; 0.3% topical) | signs of serious skin irritation (rhino mouse skin [2]; 0.1% and 0.3% in DMSO, topical, 21 days)
CC1=C(/C=C/C(C)=C\C=C\C(C)=C\C(=O)N(C)CC(=O)C(C)(C)C)C(C)(C)CCC1 [Example 1, (2E,4E 6Z,8E)-N-(3,3-dimethyl-2-oxobutyl)-N,3,7-trimethyl-9-(2,6,6-trimethylcyclohex-1-en-1-yl)nona-2,4,6,8-tetraenamide] | did not produce an inflammatory response | reduced the number of utriculi as compared to control | normal rhino mouse appearance | – | – | – | – | – | – | – | – | –
CC1=C(/C=C/C(C)=C/C=C/C(C)=C/C(=O)O)C(C)(C)CCC1 [ATRA, all-trans retinoic acid, reference compound] | intense inflammatory cell infiltrate | – | considerable skin irritation, along with excessive skin flaking | 68 ± 17 | 2 ± 2 per 20 mm of epidermal linear length | overall dermal layer is considerably thicker, and the utriculi have gone, the dermal layer has large necrotic areas, and is heavily infiltrated with activated leukocytes and macrophages | far more irritant | – | – | – | – | –
CC1=C(/C=C/C(C)=C\C=C\C(C)=C\C(=O)N(C)CC(=O)c2ccccc2)C(C)(C)CCC1 [Example 2, (2E,4E 6Z,8E)-N,3,7-trimethyl—N-(2-oxo-2-phenylethyl)-9-(2,6,6-trimethylcyclohex-1-en-1-yl)nona-2,4,6,8-tetraenamide] | little inflammatory cell infiltrate | – | normal rhino mouse appearance | 45 ± 8 | 7 ± 5 per 20 mm of epidermal linear length | normalization of dermal thickness, but still many structural remnants of utriculi | – | 1.1 ± 0.6 | 44 ± 6 | 5 ± 3 per 20 mm of epidermal linear length | 0.9 ± 0.4 | did not show any signs of serious skin irritation at either dose
